Measurements reported in PubChem BioAssay AID1996.
Converted amounts (≈) assume the structure as drawn.

Details: buffer; pH 7.4; 200.0 µM

SMILES | solubility kinetic [µg/mL]
CCN(CC)C(=O)CSC(Nc1ccc(F)cc1)=C(C#N)C#N | > 49.9
C=Cn1ccnc1P(O)(=S)c1nc(C)c(CCOC(C)=O)s1 (stereo not drawn) | 43.1 (≈ 121 µM)
CCOC(=O)CN1C(=O)CC(c2ccccc2)C1=O (stereo not drawn) | > 39.2
FC(F)(F)c1cccc(NC(=S)N2CCCCCC2)c1 | 22.3 (≈ 73.8 µM)
c1ccc(-c2csc(Nc3ccccn3)n2)cc1 | 0.3 (≈ 1.18 µM)
Cc1ccc(Sc2ccc(S(=O)(=O)Nc3ccc(C(=O)O)cc3)cc2)cc1C | > 62
COc1cc(Cl)c(C)cc1NC(=O)COC(=O)C1CC1C (stereo not drawn) | 29.9 (≈ 95.9 µM)
O=C(/C=C/c1cccs1)N1CCN(c2ccc(F)cc2)CC1 | 3.1 (≈ 9.8 µM)
Cc1cc(C)c(C(=O)/C=C/c2cccs2)c(=O)[nH]1 | 34.4 (≈ 133 µM)
FC(F)(F)c1ccccc1NC(=S)N1CCCC1 | 33 (≈ 120 µM)
CSCC(=O)N1CCC(CCC(=O)NC2CC2)CC1 | > 42.7
COc1ccccc1NC(=O)Nc1c(C)nn(C)c1C | > 41.1
CCOC(=O)c1sc(S(C)=O)c2c1CCc1conc1-2 (stereo not drawn) | > 46.7
O=C(CSc1ccc(-c2cccnc2)nn1)N1CCCCC1 | > 47.2
CC(OC(=O)c1ccco1)C(=O)NCc1ccc2c(c1)OCO2 (stereo not drawn) | > 47.6
CC(C)c1ccc(NC(=O)NCc2ccc3c(c2)OCO3)cc1 | < 0.3
COc1ccc(C2=NCCNC(C(F)(F)F)=C2)cc1 | > 40.5
O=C(CNC(=O)c1ccccc1F)NCc1cccnc1 | > 43.1
CC1CN(CCC(=O)Nc2ccccc2F)CC(C)O1 (stereo not drawn) | > 42.1
COc1cc(N2C(=O)CC3(CCCC3)CC2=O)cc(OC)c1OC | 47.2 (≈ 142 µM)
COc1ccccc1NC(=O)/C(C#N)=C/c1cccn1C | 0.6 (≈ 2.13 µM)
CC(CNC(=O)COC(=O)c1cccs1)c1ccccc1 (stereo not drawn) | > 45.5

SMILES | solubility kinetic [µg/mL]
Cc1cccc(C(=S)N2CCOCC2)n1 | > 33.3
CC(O)c1nc2cc([N+](=O)[O-])ccc2n1Cc1ccccc1 (stereo not drawn) | 6.9 (≈ 23.2 µM)
CCN(C(=O)CSc1ncccn1)C1CCS(=O)(=O)C1 (stereo not drawn) | > 47.3
N#Cc1ccccc1NC(=O)COC(=O)CN1C(=O)C2CCCCC2C1=O (stereo not drawn) | > 55.4
O=[N+]([O-])c1ccccc1S(=O)(=O)N1CCCc2ccccc21 | 10.9 (≈ 34.2 µM)
CN(Cc1nc(Cc2cccc(F)c2)no1)CC1CCOCC1 | 41.1 (≈ 129 µM)
CCOc1ccc(C2NC(=O)Cc3cc(OC)c(OC)cc32)cc1 (stereo not drawn) | > 49.1
O=C(O)Cn1c(-c2ccccn2)nc2ccccc21 | > 38
CC(=O)NC1C(O)OC(CO)C(O)C1O (stereo not drawn) | > 33.2
N=C1SC(CC(=O)Nc2ccc([N+](=O)[O-])cc2)C(=O)N1c1ccccc1 (stereo not drawn) | 1 (≈ 2.7 µM)
Cc1ccc(S(=O)(=O)CC(=O)NC(C)c2ccccc2)cc1 (stereo not drawn) | 42.4 (≈ 134 µM)
CN(C)C(=S)Nc1ccc(Cc2ccncc2)cc1 | 36.5 (≈ 134 µM)
CC(C)C(C(=O)Nc1ccncc1)c1ccc(Cl)cc1 (stereo not drawn) | > 43.3
COc1ccc(CC(=O)Nc2cc(C)ccc2O)cc1OC | > 45.2
O=C(CNC(=O)c1ccco1)Nc1cccc(Cl)c1 | 18.9 (≈ 67.8 µM)
COc1ccccc1CNC(=O)C(Cc1ccccc1)NC(=O)c1ccccc1 (stereo not drawn) | 12.8 (≈ 33 µM)
O=C(Nc1ccc(Oc2ccccc2)cc1)N[C@@H](Cc1ccccc1)C(=O)O | > 56.5
CCOc1ccc2nc(NC(=O)CN3CCOCC3)sc2c1 | > 48.2
COC(=O)c1ccc(/C=C/c2nc3ccccc3c(=O)[nH]2)cc1 | 3.7 (≈ 12.1 µM)
COc1ccc(-n2nc3c(c2NC(C)=O)CS(=O)(=O)C3)cc1 | > 48.2
Cc1cccc(CC(=O)Nc2ccon2)c1 | > 32.4
Cl.NS(=O)(=O)c1ccc(CCNC/C=C/c2ccccc2)cc1 | > 52.9

SMILES | solubility kinetic [µg/mL]
Cc1ccc2cccc(SCC(=O)Nc3ccc(F)cc3)c2n1 | < 0.3
Cc1nc2cc(Cl)c(Cl)cc2n1CCCO | 33.9 (≈ 131 µM)
CCc1c(C(=O)N2CCCN(C)CC2)csc1C | > 40
CCCCc1c(O)c2cccc3c2n(c1=O)CCC3 | 35.2 (≈ 137 µM)
O=C(CCC(=O)NC1CCCCC1)NCc1ccc(F)cc1 | > 46
CCOc1ccc(C(=O)OCC(=O)N2CCCC2)cc1 | > 41.6
COc1ccc(CN(C)C(=O)CCl)cc1 | > 34.2
Clc1ccc(OCc2noc(-c3ccsc3)n2)c(Cl)c1 | < 0.4
O=C(COC(=O)c1c[nH]c2ccccc12)NC1CCCC1 | > 42.9
Cc1ccccc1-c1nc2ccccc2c(=O)n1C | 35.8 (≈ 143 µM)
CCCN(CCC)S(=O)(=O)c1nc2nc(C)cc(C)n2n1 | > 46.7
Cc1ccc(Cl)cc1N1CCN(CC(O)COC(C)C)CC1.Cl (stereo not drawn) | > 54.5
O=C1CCC([N+](=O)[O-])C(c2ccccc2F)N1 (stereo not drawn) | > 35.7
CCN(CC)CCC(=O)c1ccc(F)cc1.Cl | > 39
CC1(C)c2ccccc2-n2c1cc1oc(=O)cc(O)c1c2=O | 35.6 (≈ 121 µM)
COc1cccc(OC)c1C(=O)Nc1ccncc1 | 19 (≈ 73.6 µM)
COc1ccc(C(=O)Nc2ccc3ccccc3c2)cc1 | < 0.6
N#Cc1sc(NCc2cccc(Cl)c2)nc1Cl | 2.4 (≈ 8.45 µM)
O=C(O)c1ccccc1NS(=O)(=O)c1ccc2ccccc2c1 | > 49.1
O=C(Nc1ccsc1C(=O)O)c1ccccc1Cl | > 42.3
Cl.O=C(NCCN1CCCC1)c1ccc(Br)cc1 | > 50
CC(NC(=O)Nc1ccc(Cl)cc1)c1ccccc1 (stereo not drawn) | 1.9 (≈ 6.92 µM)

SMILES | solubility kinetic [µg/mL]
CCS(=O)(=O)N1CCC(C(=O)O)CC1 | > 33.2
O=C(COC(=O)c1cnc(Cl)c(Cl)c1)Nc1cccc(S(=O)(=O)N2CCOCC2)c1 | 38.9 (≈ 82 µM)
Cl.c1ccc(C2NCCc3ccccc32)cc1 (stereo not drawn) | > 36.9
CC(=O)C1=C(C)NC(=S)NC1c1cc([N+](=O)[O-])ccc1O (stereo not drawn) | > 46.1
COc1cc(/C=C/C(=O)OCC(=O)NCc2ccc3c(c2)OCO3)cc(OC)c1OC | 4.3 (≈ 10 µM)
COC(=O)c1ccc(NS(=O)(=O)c2ccc(S(=O)(=O)N3CCOCC3)cc2)cc1 | > 66.1
COc1ccc(C(=O)Nc2cc3c4c(c2)C(C)C(=O)N4CCC3)cc1 (stereo not drawn) | 38.6 (≈ 115 µM)
CN(Cc1ccccc1)C(=O)Cc1ccccc1 | 35.5 (≈ 148 µM)
CC(=O)NC(Cc1ccccc1)C(C)=O (stereo not drawn) | > 30.8
CC1CC1C(=O)N(C)CC(=O)Nc1cccc(F)c1 (stereo not drawn) | > 39.6
Cc1ccc(-c2nc(-c3ccncc3)no2)cc1Cl | < 0.2
Cc1cc(C(=O)COc2ccccc2C(N)=O)c(C)n1C1CC1 | 7 (≈ 22.4 µM)
Cc1ccc(NC(=S)NC(=O)C2CCCCC2)c(Br)c1 | 1.7 (≈ 4.78 µM)
Cc1ccc(CN2CCN(C3CCC3)CC2CCO)cc1 (stereo not drawn) | 42.4 (≈ 147 µM)
CCCCOc1ccc(CN=C(N)N)cc1Cl | > 38.4
CCOC(=O)c1ccc(N=C(C)c2c(O)[nH]c(=O)[nH]c2=O)cc1 | 6.6 (≈ 20.8 µM)
O=C(CNS(=O)(=O)c1ccc(F)cc1)N1CCCC1 | > 42.9
Cc1ccc(-c2csc(NC(=O)c3ccc([N+](=O)[O-])o3)n2)cc1 | 1.2 (≈ 3.64 µM)
O=C(NCc1ccccc1F)C1CCCN(c2cnccn2)C1 (stereo not drawn) | 44.7 (≈ 142 µM)
COc1ccc(N2CCN(c3cc(C)c4cccc(C)c4n3)CC2)cc1 | < 0.2
CCOc1ccc(NC(=O)Nc2ccc3c(c2)CCC3)cc1 | < 0.3
Cn1c(=O)c2c(nc(Sc3ccccc3N)n2C)n(C)c1=O | 39.1 (≈ 123 µM)
